# Measured values: PubChem BioAssay (NCI)
#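 Cells were grown in 96-well plates and exposed to each compound for 48 hours at five concentrations; endpoints were interpolated linearly between bracketing concentrations, or set to the highest concentration if not reached. At the TGI there is no net growth.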
# Tests used:
# Assay in all cases: inhibition of tumour cell growth, NCI panel, 48 h
# [1] = system: MDA-MB-435
# [2] = system: UO-31 renal
# [3] = system: TK-10 renal
# [4] = system: SK-MEL-2 melanoma
# [5] = system: UACC-62 melanoma
# [6] = system: HOP-62 NSCLC
# [7] = system: COLO 205 colon
# [8] = system: SF-268 CNS
# [9] = system: HT29 colon
# [10] = system: IGROV1 ovarian
# [11] = system: U251 CNS
# [12] = system: HCT-15 colon
# [13] = system: SK-MEL-5 melanoma
# [14] = system: SR leukemia
# [15] = system: SNB-19 CNS
# [16] = system: ACHN renal
# [17] = system: SNB-75 CNS
# [18] = system: HL-60(TB) leukemia
# [19] = system: 786-0 renal
# [20] = system: HS 578T breast
# [21] = system: LOX IMVI melanoma
# [22] = system: BT-549 breast
# [23] = system: NCI/ADR-RES ovarian
# [24] = system: MALME-3M melanoma
# [25] = system: M14 melanoma
# [26] = system: EKVX NSCLC
# [27] = system: OVCAR-5 ovarian
# [28] = system: OVCAR-4 ovarian
# [29] = system: SF-295 CNS
# [30] = system: K-562 leukemia
# [31] = system: PC-3 prostate
# [32] = system: MCF7 breast
# [33] = system: SK-MEL-28 melanoma
# [34] = system: SK-OV-3 ovarian
# [35] = system: A549 NSCLC
# [36] = system: NCI-H226 lung
# [37] = system: SW-620 colon
# [38] = system: KM12 colon
# [39] = system: MDA-N
# [40] = system: MOLT-4 leukemia
# [41] = system: T-47D breast
# [42] = system: OVCAR-8 ovarian
# [43] = system: SN12C renal
# [44] = system: OVCAR-3 ovarian
# [45] = system: NCI-H522 lung
# [46] = system: NCI-H460 lung
# [47] = system: CAKI-1 renal
# [48] = system: DU-145 prostate
# [49] = system: CCRF-CEM leukemia
# [50] = system: HCT-116 colon
# [51] = system: UACC-257 melanoma
# [52] = system: HOP-92 NSCLC
# [53] = system: NCI-H23 lung
# [54] = system: RPMI-8226 leukemia
# [55] = system: HCC-2998 colon
# [56] = system: SF-539 CNS
# [57] = system: MDA-MB-231 breast
smiles,measurement,setting,value
CCOC(=O)CSc1c(C(=O)OCC)c(=O)n(-c2ccccc2)c(=S)n1-c1ccccc1,TGI,[1],> 100 µM
same,TGI,[2],> 100 µM
same,TGI,[3],> 100 µM
same,TGI,[4],> 100 µM
same,TGI,[5],> 100 µM
same,TGI,[6],> 100 µM
same,TGI,[7],> 100 µM
same,TGI,[8],> 100 µM
same,TGI,[9],> 100 µM
same,TGI,[10],> 100 µM
same,TGI,[11],> 100 µM
same,TGI,[12],> 100 µM
same,TGI,[13],> 100 µM
same,TGI,[14],> 100 µM
same,TGI,[15],> 100 µM
same,TGI,[16],> 100 µM
same,TGI,[17],> 100 µM
same,TGI,[18],47.4 µM
same,TGI,[19],> 100 µM
same,TGI,[20],> 100 µM
same,TGI,[21],> 100 µM
same,TGI,[22],> 100 µM
same,TGI,[23],8.6 µM
same,TGI,[24],> 100 µM
same,TGI,[25],> 100 µM
same,TGI,[26],> 100 µM
same,TGI,[27],> 100 µM
same,TGI,[28],> 100 µM
same,TGI,[29],> 100 µM
same,TGI,[30],> 100 µM
same,TGI,[31],> 100 µM
same,TGI,[32],> 100 µM
same,TGI,[33],> 100 µM
same,TGI,[34],> 100 µM
same,TGI,[35],> 100 µM
same,TGI,[36],> 100 µM
same,TGI,[37],> 100 µM
same,TGI,[38],> 100 µM
same,TGI,[39],> 100 µM
same,TGI,[40],> 100 µM
same,TGI,[41],> 100 µM
same,TGI,[42],> 100 µM
same,TGI,[43],> 100 µM
same,TGI,[44],> 100 µM
same,TGI,[45],> 100 µM
same,TGI,[46],> 100 µM
same,TGI,[47],> 100 µM
same,TGI,[48],> 100 µM
same,TGI,[49],> 100 µM
same,TGI,[50],> 100 µM
same,TGI,[51],> 100 µM
same,TGI,[52],20.6 µM
same,TGI,[53],> 100 µM
same,TGI,[54],> 100 µM
CN1C(=O)C2CCC(=O)N2c2cccnc21 (stereo not given),TGI,[1],> 100 µM
same,TGI,[2],> 100 µM
same,TGI,[3],> 100 µM
same,TGI,[4],> 100 µM
same,TGI,[5],> 100 µM
same,TGI,[6],> 100 µM
same,TGI,[7],> 100 µM
same,TGI,[8],> 100 µM
same,TGI,[9],> 100 µM
same,TGI,[10],> 100 µM
same,TGI,[11],> 100 µM
same,TGI,[12],> 100 µM
same,TGI,[13],> 100 µM
same,TGI,[14],> 100 µM
same,TGI,[15],> 100 µM
same,TGI,[16],> 100 µM
same,TGI,[18],> 100 µM
same,TGI,[19],> 100 µM
same,TGI,[20],> 100 µM
same,TGI,[21],> 100 µM
same,TGI,[22],> 100 µM
same,TGI,[23],> 100 µM
same,TGI,[24],> 100 µM
same,TGI,[26],> 100 µM
same,TGI,[28],> 100 µM
same,TGI,[29],> 100 µM
same,TGI,[30],> 100 µM
same,TGI,[55],> 100 µM
same,TGI,[32],> 100 µM
same,TGI,[33],> 100 µM
same,TGI,[35],> 100 µM
same,TGI,[56],> 100 µM
same,TGI,[36],> 100 µM
same,TGI,[37],> 100 µM
same,TGI,[38],> 100 µM
same,TGI,[39],> 100 µM
same,TGI,[40],> 100 µM
same,TGI,[41],> 100 µM
same,TGI,[57],> 100 µM
same,TGI,[42],> 100 µM
same,TGI,[43],> 100 µM
same,TGI,[44],> 100 µM
same,TGI,[45],> 100 µM
same,TGI,[46],> 100 µM
same,TGI,[47],> 100 µM
same,TGI,[48],> 100 µM
same,TGI,[49],> 100 µM
same,TGI,[50],> 100 µM
same,TGI,[51],> 100 µM
same,TGI,[53],> 100 µM
same,TGI,[54],> 100 µM
